This is an account of results in PubChem BioAssay (NCI).

SMILES strings stand for the structures. Several values for one entry are separate records, joined by “and”; a condition that tells them apart may be missing. Equal values may be shown once.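 Briefly, cells in 96-well plates were exposed to five compound concentrations for 48 h, and endpoints were estimated by linear interpolation. GI50 = concentration required for 50% inhibition of growth. TGI: concentration producing complete growth inhibition.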

Test systems include LOX IMVI melanoma; HCT-116 colon; SK-MEL-28 melanoma; RPMI-8226 leukemia; M14 melanoma; IGROV1 ovarian; U251 CNS; SF-268 CNS; KM12 colon; T-47D breast.
What all share (assay): NCI anticancer screen, dose series, 48 h

With `COc1cc(OC)c2sc(-c3ccc(-n4cncc4-c4ccc(OC)c(OC)c4)cc3)nc2c1`, the GI50 in the test with LOX IMVI melanoma is greater than 100 µM; in the test on HCT-116 colon, 5.48 µM; in the test on SK-MEL-28 melanoma, greater than 100 µM; in the test with RPMI-8226 leukemia, greater than 100 µM; in the test with M14 melanoma, greater than 100 µM; with IGROV1 ovarian, 56.1 µM. Also, the GI50 with U251 CNS was 9.19 µM; in the test on SF-268 CNS it was 9.96 µM; in the test on KM12 colon, 6.8 µM; in the test with T-47D breast it was 3.78 µM. The TGI in the test with LOX IMVI melanoma, in the test on HCT-116 colon, in the test on SK-MEL-28 melanoma, in the test with RPMI-8226 leukemia, in the test with M14 melanoma and with IGROV1 ovarian was greater than 100 µM each time. Further, the TGI in the test with U251 CNS, in the test with SF-268 CNS, in the test on KM12 colon and in the test on T-47D breast was greater than 100 µM each time.

Turning to `Cc1cc(CCl)c(C)cc1CCl`, the GI50 in the test with LOX IMVI melanoma is 0.883 µM; with HCT-116 colon it was 1.48 µM; in the test with SK-MEL-28 melanoma it was 2.49 µM; with RPMI-8226 leukemia it was 1.63 µM; in the test with M14 melanoma it was 3.54 µM; in the test with IGROV1 ovarian, 1.47 µM. Moreover, the GI50 in the test with U251 CNS was 1.47 µM; with SF-268 CNS it was 1.02 µM; in the test with KM12 colon it was 0.845 µM; in the test with T-47D breast it was 0.733 µM. The TGI in the test with LOX IMVI melanoma was found to be 3.79 µM; in the test with HCT-116 colon it was 6.58 µM; in the test with SK-MEL-28 melanoma, 6.66 µM; with RPMI-8226 leukemia, 6.9 µM; in the test with M14 melanoma, 30.5 µM; with IGROV1 ovarian, 6.25 µM. In addition, the TGI in the test with U251 CNS is 4.27 µM; in the test with SF-268 CNS, 6.08 µM; in the test on KM12 colon, 2.42 µM; in the test on T-47D breast, 2.31 µM.

With `CCCCCCNCCCNc1c2cc(OC)ccc2nc2cccc([N+](=O)[O-])c12`, the GI50 was 0.272 µM with LOX IMVI melanoma; 0.0384 µM with HCT-116 colon; 0.305 µM in the test with SK-MEL-28 melanoma; 0.0646 µM in the test on RPMI-8226 leukemia; 0.143 µM in the test with M14 melanoma; 0.223 µM in the test with IGROV1 ovarian. In addition, the GI50 was 0.0407 µM in the test on U251 CNS, 0.261 µM with SF-268 CNS, 0.16 µM with KM12 colon and 0.35 µM in the test with T-47D breast. For the same compound, the TGI with LOX IMVI melanoma is 0.542 µM and 0.974 µM; in the test with HCT-116 colon, 0.155 µM and 1.01 µM; with SK-MEL-28 melanoma, 0.474 µM and 2 µM; in the test on RPMI-8226 leukemia it was 0.14 µM and 0.348 µM; with M14 melanoma, 0.285 µM and 0.293 µM; with SF-268 CNS, 0.418 µM and 1.01 µM. In addition, the TGI in the test on KM12 colon was 0.508 µM and 0.472 µM; in the test on T-47D breast, 0.931 µM and 2.49 µM.

Turning to `CN(Cc1ccc(F)cc1)c1ccc(CO)c(Cl)c1`, the GI50 was 22.9 µM in the test on LOX IMVI melanoma; 0.412 µM in the test on HCT-116 colon; 31.3 µM with SK-MEL-28 melanoma; 12.4 µM in the test with RPMI-8226 leukemia; 23.3 µM with M14 melanoma; 0.476 µM with IGROV1 ovarian. In addition, the GI50 in the test on U251 CNS is 4.63 µM; with SF-268 CNS, 37.8 µM; in the test with KM12 colon, 27.1 µM; with T-47D breast it was 0.667 µM. In addition, the TGI in the test on LOX IMVI melanoma was greater than 68.9 µM; in the test on HCT-116 colon, 11.9 µM; in the test on SK-MEL-28 melanoma it was greater than 100 µM; in the test on RPMI-8226 leukemia it was 60.6 µM; in the test with M14 melanoma, greater than 76.9 µM; with IGROV1 ovarian, 3.47 µM. For the same compound, the TGI in the test with U251 CNS is 68.5 µM; in the test on SF-268 CNS, greater than 100 µM; with KM12 colon it was greater than 76.9 µM; in the test with T-47D breast, 4.16 µM.

Regarding `COc1ccc(-c2nc(-c3nc4cc(Cl)c(F)cc4[nH]3)c3ccccn23)cc1`, the GI50 in the test with LOX IMVI melanoma is 5.36 µM; in the test with HCT-116 colon it was 6.09 µM; with SK-MEL-28 melanoma, greater than 100 µM; in the test with RPMI-8226 leukemia, 3.02 µM; in the test with M14 melanoma it was 5.15 µM; in the test on IGROV1 ovarian, 4.91 µM. Moreover, the GI50 in the test with U251 CNS is 6.67 µM; in the test with SF-268 CNS it was 9.11 µM; in the test with KM12 colon, 4.56 µM; in the test on T-47D breast, 3.54 µM. Moreover, the TGI in the test on LOX IMVI melanoma, in the test with HCT-116 colon, in the test on SK-MEL-28 melanoma, in the test with RPMI-8226 leukemia, in the test with M14 melanoma and in the test with IGROV1 ovarian was greater than 100 µM in each case. For the same compound, the TGI in the test with U251 CNS was greater than 100 µM; in the test with SF-268 CNS it was greater than 100 µM; with KM12 colon it was greater than 100 µM; in the test with T-47D breast, 33.1 µM.

In the case of `O=C(c1ccc2ccccc2c1)c1nc2cc(F)ccc2[n+]([O-])c1C(F)(F)F`, the GI50 is 13.8 µM in the test with LOX IMVI melanoma; 18.4 µM in the test on HCT-116 colon; 15.9 µM in the test with SK-MEL-28 melanoma; 20.1 µM in the test with RPMI-8226 leukemia; 17.8 µM in the test on M14 melanoma; 8.36 µM in the test on IGROV1 ovarian. Also, the GI50 in the test on U251 CNS was 18.1 µM; in the test with SF-268 CNS it was 18.5 µM; in the test with KM12 colon, 19 µM; in the test with T-47D breast, 27.6 µM. For the same compound, the TGI in the test on LOX IMVI melanoma worked out at 26.9 µM; in the test with HCT-116 colon, 33.1 µM; in the test with SK-MEL-28 melanoma, 30.3 µM; in the test on RPMI-8226 leukemia, 53.7 µM; with M14 melanoma, 34 µM; in the test with IGROV1 ovarian it was 21.6 µM. The TGI was 33.9 µM in the test on U251 CNS, 38.1 µM in the test with SF-268 CNS, 39.4 µM in the test with KM12 colon and greater than 100 µM with T-47D breast.

`COc1cc(OCc2cccc(-c3ccccc3)c2C)cc(OC)c1CN1CCCCC1C(=O)NCCOCCOCCN` (stereo not drawn): the GI50 with LOX IMVI melanoma was 1.7 µM; with HCT-116 colon it was 2.04 µM; with SK-MEL-28 melanoma it was 1.75 µM; with RPMI-8226 leukemia, 2.04 µM; in the test on M14 melanoma it was 1.84 µM; in the test with IGROV1 ovarian it was 3.06 µM. Moreover, the GI50 is 2.1 µM in the test on U251 CNS, 2.1 µM in the test on SF-268 CNS, 3.2 µM with KM12 colon and 1.77 µM in the test with T-47D breast. Also, the TGI in the test on LOX IMVI melanoma turned out to be 3.21 µM; with HCT-116 colon, 4.64 µM; with SK-MEL-28 melanoma, 3.22 µM; in the test on RPMI-8226 leukemia, 5 µM; in the test with M14 melanoma, 3.57 µM; in the test with IGROV1 ovarian, 12.1 µM. Also, the TGI was 4.44 µM with U251 CNS, 5.5 µM in the test on SF-268 CNS, 11.4 µM with KM12 colon and 3.77 µM with T-47D breast.
